Test results: US11912716B2 (priority 2018, dated 2024)

Key:
[1] = test system: morphine-dependent animals; assay: naloxone-precipitated morphine-withdrawal jumping (Example 10); assay type: in vivo, Kunming mice
[2] = test system: SD rats; assay: addictive potential: induction of conditioned place preference (Example 14); settings: for CPP SCORE: morphine 10 mg/kg s.c. daily for four consecutive days, hydrochloride
[3] = test system: morphine-dependent mice; assay: morphine-induced physical dependence, withdrawal jumping (Example 15); assay type: in vivo, Kunming mice; settings: 1 g/kg, 3 hours before naloxone
[4] = test system: morphine-induced conditioned place preference behavior in rats; assay: morphine-induced conditioned place preference behavior, single oral administration before test (Example 12); assay type: in vivo, SD rats; settings: 70 mg/kg single oral dose 60 minutes before test, morphine 10 mg/kg s.c. for four days
[5] = test system: formation of conditioned place preference induced by morphine in rats; assay: formation of conditioned place preference induced by morphine, concomitant administration (Example 13); assay type: in vivo, SD rats; settings: 70 mg/kg oral 30 minutes before each morphine injection (10 mg/kg s.c.), four consecutive days
[6] = 0.125 g/kg intragastric, 1 hour after administration
[7] = 0.25 g/kg intragastric, 1 hour after administration
[8] = 0.5 g/kg intragastric, 1 hour after administration
[9] = 0.5 g/kg intragastric, 3 hours after administration

## CCC(=O)C(CC(C)N(C)C)(c1ccccc1)c1ccccc1 (stereo not drawn) [methadone, reference compound]
[1]; methadone 20 mg/kg intragastric, 1 hour before naloxone, jumpings within 30 minutes
  Jumping times (Mean ± SEM): 33.8 ± 3.3
[1]; methadone 20 mg/kg, 1 hour after administration
  withdrawal jumping symptoms versus morphine model group (in words): significantly reduced

## CN1CC[C@]23c4c5ccc(O)c4O[C@H]2[C@@H](O)C=C[C@H]3[C@H]1C5.Cl [morphine, morphine hydrochloride]
[2]; morphine 10 mg/kg s.c.
  induction of conditioned place preference (in words): induced conditioned place preference behavior
[2]
  CPP SCORE: 208.3 ± 16.2 s
[2]; listed as Morphine
  CPP SCORE: 208.3 ± 16.2 n = 10 s

## CC(=O)O[C@H]1[C@H](OC(C)=O)[C@H]([C@@](C)(O)CC[C@]2(C)OC(C)(C)[C@H]3CC[C@]2(C)O3)[C@@]2(C)CC[C@@H]3OC(C)(C)[C@H](O)CC[C@@]3(C)[C@H]12 [limaxol A, reference compound]
[3]
  Inhibition of morphine-withdrawal jumping: 21.26%
  Jumping times (Mean ± SEM): 30.0 ± 9.7

## CC(=O)O[C@H]1[C@H](OC(C)=O)[C@H]([C@@](C)(O)CC[C@@H]2OC(C)(C)[C@H]3CC[C@]2(C)O3)[C@@]2(C)CC[C@@H]3OC(C)(C)[C@H](OC(C)=O)CC[C@@]3(C)[C@H]12 [3,12,13-triacetyl limaxol A, (3R,5aS,7aS,8R,9R,10R,10aR,10bS)-dodecahydro-8-((S)-2-hydroxy-4-((1S,2S,5R)-1,4,4-trimethyl-3,8-dioxa-bicyclo[3.2.1]octan-2-yl)butan-2-yl)-4,4,7a,10b-tetramethyl-1H-indeno[5,4-b]oxepine-3,9,10-triol triacetate]
[1]; [6]
  % Inhibition of morphine-withdrawal jumping: 3.0 ± 12.2%
  Jumping times (Mean ± SEM): 33.5 ± 4.1
[1]; [7]
  % Inhibition of morphine-withdrawal jumping: 21.1 ± 28.2%
  Jumping times (Mean ± SEM): 27.5 ± 9.4
[1]; [8]
  % Inhibition of morphine-withdrawal jumping: 48.2 ± 7.5%
  Jumping times (Mean ± SEM): 18.5 ± 2.4
[1]; [9]
  % Inhibition of morphine-withdrawal jumping: 45.0 ± 17.0%
  Jumping times (Mean ± SEM): 16.7 ± 4.9
[4]; listed as Triacetyl limaxol A
  CPP SCORE: 318.5 ± 90.9 n = 7 s
[4]; listed as triacetyl limaxol A
  CPP SCORE: 318.5 ± 90.9 s
[5]; listed as Triacetyl limaxol A
  CPP SCORE: 223.8 ± 34.0 n = 6 s
[5]; listed as triacetyl limaxol A
  CPP SCORE: 318.5 ± 90.9 s
[3]
  Inhibition of morphine-withdrawal jumping: 43.13%
  Jumping times (Mean ± SEM): 21.7 ± 6.9
